Assay results reported in US20210268056A1, “TAXODIONE FOR ITS USE FOR PROTECTING MUSCLE AND MEAT FROM OXIDATION” (CENTRE NATIONAL DE LA RECHERCHE SCIENTIFIQUE, priority 2018, published 2021).
Entries after “also recorded” stand apart in the source; their conditions may differ.

Key:
[1] = DPPH free radical scavenging assay; assay type: biochemical
Method: Radical scavenging activity was evaluated using DPPH according to the method described by Morel et al. with some modifications (Morel, Landreau, Nguyen, Derbre, Grellier, Pape, et al., 2012). Tested extracts and standards were diluted in absolute ethanol at different concentrations. Ethanol was used as blank, and 10, 25, 50 and 75 μM Trolox were used as calibration solutions. Tested compounds or standard solutions (100 μL) were placed in 96-well plates in triplicate for each tested concentration. Absolute ethanol was added (75 μL). The reaction was initiated by adding 25 μL of freshly prepared DPPH solution (1 mM) to obtain a final volume of 200 μL/well. After 30 min in the dark at room temperature, absorbance was determined at 550 nm with a UVMAX Molecular Devices microtiter plate reader (MDS Inc., Toronto, Canada). Results were expressed as the effective concentration at which 50% of DPPH radicals were scavenged (EC50 in μg/mL). The results are the mean±standard deviation (SD) of three independent experiments (three wells per concentration for each experiment).

[2] = system: protein phosphatase 2C; conditions: Kusumoto 2014; cited from earlier work
[3] = system: microbes; conditions: Zhang 2012; Kuzma 2012; cited from earlier work
[4] = system: Plasmodium; conditions: Zhang 2012; cited from earlier work
[5] = target: T1, HIV-1 protease (Human immunodeficiency virus type 1 group M subtype B, UniProt P04585); conditions: Ahmed 1999; cited from earlier work
T1 construct: HIV-1 protease

[6] = target: acetylcholinesterase (Homo sapiens, UniProt P22303); conditions: Kuzma 2016; cited from earlier work
Chain of acetylcholinesterase (P22303 32-614): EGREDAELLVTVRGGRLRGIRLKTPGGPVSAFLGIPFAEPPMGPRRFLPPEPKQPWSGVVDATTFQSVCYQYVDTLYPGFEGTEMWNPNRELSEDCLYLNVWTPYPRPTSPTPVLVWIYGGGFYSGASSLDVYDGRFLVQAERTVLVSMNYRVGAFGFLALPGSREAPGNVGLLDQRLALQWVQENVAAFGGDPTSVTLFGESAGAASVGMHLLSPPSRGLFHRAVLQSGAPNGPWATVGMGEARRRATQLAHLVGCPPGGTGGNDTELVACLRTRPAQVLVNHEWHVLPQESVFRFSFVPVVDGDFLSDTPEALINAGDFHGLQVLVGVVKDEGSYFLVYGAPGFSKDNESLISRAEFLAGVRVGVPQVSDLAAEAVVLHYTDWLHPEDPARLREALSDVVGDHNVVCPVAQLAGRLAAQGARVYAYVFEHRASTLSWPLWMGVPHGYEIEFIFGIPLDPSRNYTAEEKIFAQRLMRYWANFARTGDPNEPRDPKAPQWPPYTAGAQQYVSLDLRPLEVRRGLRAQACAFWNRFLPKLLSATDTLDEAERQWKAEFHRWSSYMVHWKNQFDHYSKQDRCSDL

[7] = system: CHOP gene; experiment: RT-qPCR of CHOP gene expression in myoblasts; assay type: cell-based, human
Method: Myoblasts were seeded in 35 mm collagen-coated dishes, cultured in proliferation medium, pre-incubated or not with TX for 24 h, and then incubated or not with a sub-lethal concentration of H2O2 (80 μM; to avoid interference with dead cells) for 24 h. Then, total RNA was isolated from muscle cells using the NucleoSpin RNA II Kit (Macherey-Nagel, Hoerdt, France). The RNA concentration of each sample was measured with an Eppendorf BioPhotometer. cDNA was prepared using the Verso cDNA Synthesis Kit (Thermo Scientific, Ilkirch, France).
The expression of the CHOP (target) and RPLPO (control) genes was analysed by quantitative polymerase chain reaction (qPCR) on a LightCycler apparatus (Roche Diagnostics, Meylan, France), as previously described (El Haddad, Notarnicola, Evano, El Khatib, Blaquiere, Bonnieu, et al., 2017), using the following primers: […]

[8] = Kolak 2009; cited from earlier work
[9] = system: human myoblasts; experiment: H2O2-induced cell death in human myoblasts (Muse Count and Viability Kit); assay type: cell-based
Method: The quadriceps muscle biopsy was from one healthy adult (AFM-BTR “Banque de tissus pour la recherche”). Myoblasts were purified from the muscle biopsy and were cultured on collagen-coated dishes in DMEM/F12 medium with 10% foetal bovine serum (FBS), 0.1% Ultroser G and 1 ng/ml of human basic fibroblast growth factor (proliferation medium), as previously described (Kitzmann, Bonnieu, Duret, Vernus, Barro, Laoudj-Chenivesse, et al., 2006). For cell differentiation, confluent cells were cultured in DMEM with 4% FBS for 3-5 days (differentiation medium).
Myoblasts: Myoblasts were seeded in 35 mm collagen-coated dishes, cultured in proliferation medium, pre-incubated or not with the tested compounds for 24 h and then incubated or not with a lethal concentration of hydrogen peroxide (H2O2), a strong pro-oxidant/pro-apoptotic compound, for 24 h. […] Dead myoblasts were identified by staining with the Muse® Count and Viability Kit, and ROS was quantified with the Muse® Oxidative Stress Kit, followed by analysis with a Fluorescence Activated Cell Sorting (FACS) Muse apparatus (Millipore, France). […] As myotubes are too big for FACS analysis, H2O2 effect was determined by quantifying lactate dehydrogenase (LDH) activity, which is increased in the culture medium during tissue damage, using the LDH Cytotoxic Kit (ThermoFisher, France). […]

[10] = system: colon cancer cells; conditions: isolated in mixture with [9]-shogaol from Rosmarinus officinalis leaves; Borras Linares 2015; cited from earlier work
[11] = system: termites; conditions: Kusumoto 2009; cited from earlier work
[12] = system: bacteria; conditions: Machumi 2010; Bufalo 2016; cited from earlier work
[13] = system: MOLT-4, HT-29, and MCF-7 cells; conditions: Mirzaei 2017; cited from earlier work
[14] = system: Walker carcinosarcoma 256; conditions: Kupchan 1968; cited from earlier work
[15] = system: γH2AX; experiment: Western blot of phosphorylated γH2AX in myoblasts; assay type: cell-based, human
Method: Myoblasts were seeded in 35 mm collagen-coated dishes, cultured in proliferation medium, pre-incubated or not with TX for 24 h and then incubated or not with 80 μM H2O2 for 24 h. Protein extracts were separated by SDS-PAGE gel electrophoresis and transferred to nitrocellulose membranes, blocked at room temperature with Odyssey blocking buffer (Eurobio, France) and probed with the rabbit polyclonal anti-Histone H1.4 (Sigma-Aldrich; 1/5000) and rabbit polyclonal anti-gamma H2AX (Cell signalling; 1/3000) antibodies followed by IRDye® 680RD and IRDye® 800RD secondary antibodies (Eurobio, France). Fluorescence was quantified with the Odyssey software. Data were normalized to […] expression.

[16] = system: fungi; conditions: Kusumoto 2010; Machumi 2010; Bufalo 2016; cited from earlier work
[17] = system: human myoblasts; experiment: ROS quantification in myoblasts (Muse Oxidative Stress Kit, FACS); assay type: cell-based
Method: (§1) Myoblasts: Myoblasts were seeded in 35 mm collagen-coated dishes, cultured in proliferation medium, pre-incubated or not with the tested compounds for 24 h and then incubated or not with a lethal concentration of hydrogen peroxide (H2O2), a strong pro-oxidant/pro-apoptotic compound, for 24 h. The optimal H2O2 concentration was the concentration required to kill between 30% and 50% of all cells and was established before each experiment. In general, myoblasts were incubated with 120 μM H2O2. Dead myoblasts were identified by staining with the Muse® Count and Viability Kit, and ROS was quantified with the Muse® Oxidative Stress Kit, followed by analysis with a Fluorescence Activated Cell Sorting (FACS) Muse apparatus (Millipore, France). Myotubes: Myoblasts were seeded in 35 mm collagen-coated dishes, cultured in proliferation medium until confluence, and then switched to differentiation medium for 4 days. At day 2, cells were incubated with TX for 24 h prior to incubation with H2O2 for 24 h. […] As myotubes are too big for FACS analysis, H2O2 effect was determined by quantifying lactate dehydrogenase (LDH) activity, which is increased in the culture medium during tissue damage, using the LDH Cytotoxic Kit (ThermoFisher, France). In parallel, myotube cultures were loaded with a ROS-fluorescent probe (CellRox) followed by fluorescence quantification using a TECAN spectrophotometer.

[18] = system: human myotubes; experiment: H2O2 toxicity in myotubes by lactate dehydrogenase (LDH) activity; assay type: cell-based; conditions: TX 0.5 μg/mL 24 h, then H2O2 (550 μM) 24 h, FIG. 4D
Method: as §1

[19] = system: Leishmania; conditions: Naman 2016; Zhang 2012; Machumi 2010; Bufalo 2016; cited from earlier work
[20] = system: protozoa; conditions: Mothana 2014; Kuzma 2017; cited from earlier work
[21] = system: human myotubes; experiment: ROS in myotubes (CellRox probe, TECAN); assay type: cell-based; conditions: TX 0.5 μg/mL 24 h, then H2O2 (550 μM) 24 h, FIG. 4E

CC(C)c1cc2c(c(O)c1O)[C@@]1(C(=O)O)CCCC(C)(C)[C@@H]1CC2 [CA, carnosic acid]
DPPH free radical scavenging activity [1]: strong antioxidant capacities

O=C(/C=C/c1ccc(O)c(O)c1)O[C@H](Cc1ccc(O)c(O)c1)C(=O)O [rosmarinic acid]
DPPH free radical scavenging activity [1]: strong antioxidant capacities

CC(C)C1=CC2=CC(=O)[C@H]3C(C)(C)CCC[C@]3(C)C2=C(O)C1=O [taxodione, (4bS,8aS)-4b,5,6,7,8,8a-hexahydro-4-hydroxy-2-isopropyl-4b,8,8-trimethylphenanthrene-3,9-dione]
protein phosphatase 2C inhibitor [2]: 2C inhibitor,
antimicrobial activity [3]: antimicrobial
anti-plasmodial activity [4]: anti-plasmodial
HIV-1 protease inhibitory activity [5]: low HIV-1 protease
acetylcholinesterase inhibition [6]: inhibition
level of CHOP mRNA after H2O2 ([7]; TX 0.5 μg/mL 24 h, then 80 μM H2O2 24 h, FIG. 4C): reduced H2O2 effects
level of CHOP mRNA, TX alone ([7]; without H2O2): did not have any effect
activity in O2 assay [8]: not active in O2 assay
DPPH free radical scavenging activity [1]: low
antioxidant activity (H2O2-induced cell death) compared with CA and CO ([9]; all tested concentrations, FIG. 3B): significantly more efficient
anti-proliferative activity [10]: anti-proliferative
Antitermitic activity (antifeedant effect) [11]: Antitermitic activity
antibacterial activity [12]: antibacterial
anti-proliferative activity in MOLT-4, HT-29, and MCF-7 cells [13]: anti-proliferative
inhibitory activity against Walker carcinosarcoma 256 in rats [14]: inhibitory activity
level of γH2AX protein after H2O2 ([15]; TX 0.5 μg/mL 24 h, then 80 μM H2O2 24 h, FIG. 4B): reduced H2O2 effects
level of γH2AX protein, TX alone ([15]; without H2O2): did not have any effect
antifungal activity [16]: Antifungal effects
level of ROS after H2O2 ([17]; TX 0.5 μg/mL 24 h, then H2O2 24 h, FIG. 4A): reduced H2O2 effects
level of ROS, TX alone ([17]; without H2O2): did not have any effect
LDH activity after H2O2 [18]: significantly reduced H2O2 effects
anti-leishmanial activity [19]: anti-leishmanial,; also recorded: anti-leishmanial
antiprotozoal activity [20]: weak antiprotozoal
ROS level (CellRox) after H2O2 [21]: significantly reduced H2O2 effects

CC(C)c1cc2c(c(O)c1O)[C@@]13CCCC(C)(C)[C@@H]1C[C@@H]2OC3=O [CO, carnosol]
DPPH free radical scavenging activity [1]: strong antioxidant capacities

CC1(C)CC(O)CC(C)(C)N1[O] [Tempol, reference compound]
protection against H2O2-induced cell death ([9]; pre-incubation 24 h prior to lethal H2O2 (120 μM), Tempol 50 μM, RW all tested concentrations, FIG. 1A): protected human myoblasts efficiently
